In EP3041456B1, “COMPOSITION AND METHOD FOR INDUCING OR STIMULATING GROWTH OF KERATINOUS FIBRES” (priority 2013, dated 2015):

Experiments:
hair follicles = experiment: Components of turpentine oil: number of hair follicles after 4-week topical treatment; assay type: in vivo, mice; conditions: 4 weeks; for Mean number of hair follicles per 1 mm of skin +/- S.D.: 0.1 mL topically twice weekly, 10 mice per group
Excerpt: (§1) The following commercially available, components of turpentine oil were investigated: • (-) α-pinene; product No 13.127.32 Janssen Chim. 2440 Geel, Belgium • (+) α-pinene; product No 13.126.31 Janssen Chim. 2440, Geel Belgium • (-) β-pinene; product No 15.032.94 Janssen Chim, Geel, Belgium • Turpentine oil crude industrial product was originated from Portugal.
(§2) Young adult, male mice of the N.M.R.I. strain, weighing at the beginning of the experiment +/- 30 g were used, as in previous experiments.
(§3) The protocols used were similar to those described in the previous experiments and study was realized during summer months (July and August). Hair coats were cut along the dorsal surfaces with electric clippers in an area of +/- 6.0 cm^2 two days before treatments. Mice were divided into 4 groups of 10 animals. Each mouse received either • (1) A dose of 0.1 mL of 5% absolute ethanol solution of turpentine oil, • (2) (-) α-pinene, • (3) (+) α-pinene or • (4) (-) β-pinene administered topically on the surface of the shaved skin twice weekly.
(§4) Control groups of the same number and similar age and sex mice were treated the same way but topically applied the solvent alone (absolute ethanol).
(§5) After a 4-week treatment duration all the mice were sacrificed by decapitation, and general autopsies were performed in which skin and main organs specimens were excised and fixed in 10% formalin for histological examination after paraffin embedding and hematoxylin -eosin staining.
(§6) The following evaluating criteria of the observations and results were used: • (1) body and main organ weights, • (2) skin and main organs histological patterns, • (3) semi quantitative evaluation of hair follicles per 1 mm long area in a 5 different areas of the histological sections of the skin of each animal in each group at 100 x microscopic magnification.

[1] = Components of turpentine oil: body and main organ weights, autopsy, histology; assay type: in vivo, mice; design: main organs' weights, Liver / main organs' weights, Spleen / main organs' weights, 2 kidneys / main organs' weights, 2 testicles / main organs' weights, Thymus / main organs' weights, Brain: unit not given here; conditions: 5% in ethanol, 4 weeks; for Total body weight in gram / main organs' weights, 2 kidneys / main organs' weights, 2 testicles / main organs' weights, Brain / main organs' weights, Liver / main organs' weights, Spleen / main organs' weights, Thymus: Mean +/- S.D., 10 mice per group
Excerpt: as §1, §2, §3, §4, §5, §6

Row | SMILES | Mean number of hair follicles per 1 mm of skin +/- S.D. (hair follicles; 5% in absolute ethanol) | Mean number of hair follicles per 1 mm of skin +/- S.D. (hair follicles; 5% in absolute ethanol, listed as (+) α- pinene) | activity (hair follicles multiplication) compared with the control group (hair follicles; 5% in ethanol) | Total body weight in gram [1] | main organs' weights, 2 kidneys [1] | main organs' weights, 2 testicles [1] | main organs' weights, Brain [1] | main organs' weights, Liver [1] | main organs' weights, Spleen [1] | main organs' weights, Thymus [1] | Mean number of hair follicles per 1 mm of skin +/- S.D. (hair follicles; 5% in absolute ethanol, listed as (-) β- pinene) | Mean number of hair follicles per 1 mm of skin +/- S.D. (hair follicles; 5% in absolute ethanol, listed as β-pinene) | Mean number of hair follicles per 1 mm of skin +/- S.D. (hair follicles; 5% in absolute ethanol, listed as (-) α- pinene) | mice with more than 50 hair follicles (hair follicles; 5% in absolute ethanol, group of 10 mice) | local skin alteration (clinical signs or microscopic examination) (hair follicles; 5% in ethanol) | general toxicity [1]
1 | CC1=CC[C@@H]2C[C@H]1C2(C)C [(+) α-pinene, (1R)-(+)-α-pinene] | 28.9 per 1 mm of skin | 28.9 ± 6.4 per 1 mm of skin | only slightly superior to the effects of treatment with the solvent lone | 40.1 ± 3.73 gram | 840 ± 89.7 | 432 ± 34.9 | 658 ± 23.8 | 2834 ± 283.4 | 390 ± 36.7 | 266 ± 18.1 | – | – | – | – | – | –
2 | C=C1CC[C@H]2C[C@@H]1C2(C)C [(-) β-pinene, (1S)-(-)-β-pinene] | – | – | only slightly superior to the effects of treatment with the solvent lone | – | – | – | – | – | – | – | 28.1 ± 7.6 per 1 mm of skin | 28.1 per 1 mm of skin | – | – | – | –
3 | CC1=CC[C@H]2C[C@@H]1C2(C)C [(-) α-pinene, (1S)-(-)-α-pinene] | 52.6 per 1 mm of skin | – | more than double | 39.5 ± .42 gram | 814 ± 121.7 | 440 ± 41.8 | 674 ± 23 | 2790 ± 449.9 | 332 ± 24.9 | 252 ± 22.8 | – | – | 52.6 ± 7.8 per 1 mm of skin | 6 out of 10 | did not produce any local skin alteration | neither any sign of a possible general toxicity
